# Laboratory results: patent US11944623B2, “Modulators of Kv3 channels to treat pain” (Autifony Therapeutics Limited, priority 2015, dated 2024)
# What was measured:
# [1] = target: T1, Human Kv3.4 channels (Homo sapiens, UniProt Q03721); assay: Kv3.4 Assay 2 (QPatch, HEK293); type: cell-based; design: dose or concentration left out as unconfirmed; conditions: for reduction in peak Kv3.4 current: peak currents did not recover to baseline on washout
# T1 construct: expressed in transfected cells
# T1 sequence (Q03721 1-635): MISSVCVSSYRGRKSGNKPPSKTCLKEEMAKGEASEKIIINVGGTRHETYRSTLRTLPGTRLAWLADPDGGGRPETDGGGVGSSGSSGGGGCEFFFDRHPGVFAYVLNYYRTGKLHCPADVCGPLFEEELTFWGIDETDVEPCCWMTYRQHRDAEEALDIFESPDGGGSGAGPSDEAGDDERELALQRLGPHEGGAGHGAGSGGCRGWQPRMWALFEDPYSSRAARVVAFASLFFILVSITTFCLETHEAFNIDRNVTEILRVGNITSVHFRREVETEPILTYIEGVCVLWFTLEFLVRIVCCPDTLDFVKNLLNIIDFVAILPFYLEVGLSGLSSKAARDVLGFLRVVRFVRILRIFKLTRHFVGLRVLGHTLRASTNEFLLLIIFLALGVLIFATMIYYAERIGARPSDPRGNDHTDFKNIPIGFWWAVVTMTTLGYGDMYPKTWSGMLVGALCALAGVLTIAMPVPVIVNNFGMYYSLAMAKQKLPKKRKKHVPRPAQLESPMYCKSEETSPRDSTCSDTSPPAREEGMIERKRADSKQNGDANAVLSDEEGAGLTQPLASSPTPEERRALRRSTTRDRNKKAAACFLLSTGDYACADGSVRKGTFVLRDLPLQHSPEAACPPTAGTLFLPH
# Method: Human Kv3.4 channels were stably expressed in a HEK293 cell line. Cells were used within 1-4 hours of cell preparation and internal and external physiological solutions were freshly prepared prior to the assay. Electrophysiological recordings were made using an automated patch clamp platform (QPatch, Sophion Biosciences). The extracellular solution contained 145 mM NaCl, 4 mM KCl, 2 mM CaCl2, 1 mM MgCl2, 10 mM HEPES and 10 mM glucose; the pH was adjusted to 7.4 with NaOH, and the osmolarity measured as 313 mOsm/L. A low potassium intracellular solution was used which contained 135.6 mM CsCl, 5.37 mM CaCl2, 1.75 mM MgCl2, 10 mM EGTA, 15.6 mM KOH, 4 mM Na2ATP and 10 mM HEPES; the pH was adjusted to 7.2 with CsOH, and the osmolarity measured as 303 mOsm/L.
# The voltage dependence of inactivation of the homomeric hKv3.4 channels was tested using a protocol that consisted of a series of two square voltage pulses. The pulse one (P1=pre-pulse) was 1000 ms long and was immediately followed by a second pulse (P2=test pulse) which was 500 ms long. Pulse one varied between the holding potential of −60 mV to +40 mV and pulse two stepped from a holding potential of −60 to +40 mV before returning to the holding potential of −60 mV.
# Steady-state voltage-activation and -inactivation curves were fitted with single Boltzmann function in which G/Gmax was obtained from normalized current amplitude and the V50 represent the half-activation or inactivation voltage.
# The time constants of the inactivation phase of the hKv3.4 currents were derived from a mono (τ) or a double (τ1 and τ2) standard exponential fit to peak trace pulse from −80 mV to +60 mV.
# The time-course of effect of the compounds against the hKv3.4 potassium channel was measured with repetitive voltage pulses from a holding potential of −60 mV, with pulses of 500 ms duration every 5 s to +40 mV.
# One concentration (10 uM) of the test compounds was assessed during the activation, inactivation and peak pulse protocols. The protocol was applied with addition of physiological solution (control period), followed by 10 uM of the testing compound and a 10 mM of the standard blocker TEA.
# Data were normalized using the baseline current control values as top of the curve (maximum current; 1.0) and the zero potassium current as the bottom of the curve (minimum current; 0.0).
# Series resistance and quality of seals were monitored during the experiments. Analysis was performed using the Sophion QPatch Assay Software (version 5.2).
# Stock solutions (10 mM) of the standard blockers TEA was prepared in fresh physiological solution prior to testing on the e-phys automated platform. The test compounds were prepared in 10 mM DMSO stock and then diluted 1 in 1000 in physiological solution.
# [2] = tested on: rat model of persistent inflammatory pain; assay: Persistent inflammatory pain model (intraplantar FCA): paw withdrawal to mechanical pressure and cold (10° C.), general observations; type: in vivo; conditions: for rats more alert and more vocal than fellow cage-mates: 1-6 h post-dose; for rats with noticeable flaccidity: 1-6h post-dose; for behavioural changes in the rats (general observations): rat, in vivo
# Method: The efficacy of Compounds 1, 2, 3 and 4 was investigated using rat models of neuropathic and/or persistent inflammatory pain.
# Subjects comprised male, Wistar Hanover rats, 6 animals per group (225±2 g for Compound 1 studies and Compound 2 studies; 214±1 g for Compound 3 studies; 236±1 g for Compound 4 studies).
# Vehicle (12% Captisol®; 0.5% w/v HPMC and 0.1% w/v Tween-80; 5 ml/kg via the intraperitoneal route) was prepared using autoclaved deionized water not more than one week prior to use.
# The details of the studies performed are outlined in Table 1.
# The control for the neuropathic pain model was lamotrigine, administered at 30 mg/kg via oral delivery. The control for the inflammatory pain model was diclofenac, administered at 30 mg/kg via oral delivery. Statistical analysis was performed using one-way ANOVA, and comparisons were performed with time-matched vehicle group using Tukey's HSD test wherein * p<0.05, ** p<0.01, *** p<0.001.
# Treatment groups were randomised and blinded. Groups of 6 rats were used.
# Mechanical hyperalgesia was examined in a model of persistent inflammatory pain. The hyperalgesia was induced by an intraplantar injection (25 μl) of Freund's Complete Adjuvant (FCA) into the left hind paw.
# To assess the effect of the test compound, paw withdrawal thresholds or latencies were measured on both the ipsilateral (FCA-injected) and contralateral (non-injected) paws, prior to (naïve) and 24 hours following FCA injection (predose), and then at 1, 3, 6 and 24 hours after drug or vehicle administration.
# Mechanical hyperalgesia was examined in a model of neuropathic pain by measuring paw withdrawal thresholds (PWT) to increasing mechanical force applied to the dorsal surface of the rat paw using an Analgesymeter (Ugo-Basile, Milan) equipped with a wedge-shaped probe (area 1.75 mm^2). Cut-off was set at 250 g and the end-point was taken as withdrawal of the hind paw. Both ipsilateral and contralateral paw withdrawal readings were taken.
# Cold sensitivity was assessed using a commercially available cold-plate (Ugo Basile, Milan). The cold plate was allowed to stabilize for 5 minutes at the set temperature prior to testing. Paw withdrawal latencies (PWL) were determined with the cold-plate set at 10° C. The animals were lightly restrained and each hind paw in turn placed onto the surface of the cold-plate. The end point was taken as the withdrawal of the paw and recorded as the withdrawal latency for the ipsilateral and the contralateral paw. A maximum cut-off of 30 seconds was used for each paw.
# In addition to behavioural pain readings, each rat was observed throughout the study for changes in general behaviour.
# Data were expressed as withdrawal threshold (g) or withdrawal latencies (s) and percentage reversals calculated according to the following formula: […]
# Statistical analysis was carried out on withdrawal threshold readings using ANOVA with repeated measures followed by Tukey's HSD test. The level for statistical significance was set as p<0.05.
# [3] = 60 mg/kg i.p., 3 hours post-dose
# [4] = 10 mg/kg i.p., 3 hours post-dose
# [5] = 30 mg/kg i.p., 3 hours post-dose
# [6] = 60 mg/kg i.p., 1 hour post-dose
# [7] = 30 mg/kg i.p., time not stated (peak reversal at 1-3 h post-dose)
potentiation of the observed Kv3.4 current [1],shift in the voltage-dependence of activation of the Kv3.4 currents [1],reduction in peak Kv3.4 current [1] [%],changes in contralateral paw withdrawals/latencies ([2]; all doses),behavioural changes in the rats (general observations) [2],SMILES,"reversal of cold sensitivity [2, 3] [%]","reversal of mechanical sensitivity [2, 3] [%]",activity at 6 hours post-dose [2],"reversal of mechanical sensitivity [2, 4] [%]","reversal of cold sensitivity [2, 5] [%]","reversal of cold sensitivity [2, 6] [%]",further results
did not potentiate,did not produce any notable shift,36±3,no significant changes,–,"Cc1ccc(Oc2ccc(-n3c(C)n[nH]c3=O)cn2)c2c1OCC21CC1 [Compound 3, 5-methyl-4-{6-[(7-methylspiro[1-benzofuran-3,1′-cyclopropan]-4-yl)oxy]pyridin-3-yl}-2,4-dihydro-3H-1,2,4-triazol-3-one]",51,67,activity still evident,–,–,–,"rats more alert and more vocal than fellow cage-mates ([2]; 30 mg/kg group): 4/6; rats more alert and more vocal than fellow cage-mates ([2]; 60 mg/kg group): 1/6; doses producing a reversal of mechanical or cold sensitivity ([2]; 10, 30 and 60 mg/kg i.p. tested): Only the top dose; reversal at 1 hour post-dose ([2]; 1 hour post-dose): little reversal evident"
did not potentiate,did not produce any notable shift,40±5,–,–,"Cc1ccc(Oc2ncc(N3C(=O)NC(C)(C)C3=O)cn2)c2c1OCC21CC1 [Compound 1, 5,5-dimethyl-3-[2-(7-methylspiro[2H-benzofuran-3,1′-cyclopropane]-4-yl)oxypyrimidin-5-yl]imidazolidine-2,4-dione]",–,–,–,64,65,92,"reversal of cold sensitivity [2, 4]: 45%; rats with noticeable flaccidity ([2]; 30 mg/kg i.p.): 2/6; reversal of mechanical sensitivity ([2]; 30 mg/kg i.p., 1 hour post-dose): 74%; animals showing the contralateral paw effect ([2]; 60 mg/kg i.p.): 3/6; changes in contralateral paw withdrawals/latencies ([2]; 60 mg/kg i.p.): Pronounced increases; rats with noticeable flaccidity ([2]; 60 mg/kg i.p.): 4/6; reversal of mechanical sensitivity [2, 6]: 92%; reversal of cold sensitivity ([2]; 60 mg/kg i.p., 6h post-dose): 45%; reversal of mechanical sensitivity ([2]; 60 mg/kg i.p., 6h post-dose): 45%"
did not potentiate,did not produce any notable shift,45.4±4,No changes,no apparent behavioural changes,"CC[C@@]1(C)NC(=O)N(c2cnc(Oc3ccc(C)c(OC(F)(F)F)c3)nc2)C1=O [Compound 2, (5R)-5-ethyl-5-methyl-3-[2-({4-methyl-3-[(trifluoromethyl)oxy]phenyl}oxy)-5-pyrimidinyl]-2,4-imidazolidinedione]",81,67,–,46,58,96,–
did not potentiate,did not produce any notable shift,50.0±4,no significant changes,no behavioural changes noted,"CC[C@H]1NC(=O)N(c2ccc(Oc3ccc(C)c4c3C3(CC3)CO4)nc2)C1=O [Compound 4, (5R)-5-ethyl-3-[6-(7-methylspiro[2H-benzofuran-3,1′-cyclopropane]-4-yl)oxy-3-pyridyl]imidazolidine-2,4-dione]",–,–,significant activity still evident,–,–,–,"reversal of cold sensitivity [2, 7]: 55%; reversal of mechanical sensitivity [2, 7]: 50%"
